Reference: ChEMBL document CHEMBL4303101, “Identification of inhibitors of SARS-CoV-2 in-vitro cellular toxicity in human (Caco-2) cells using a large scale drug repurposing collection” (2020)

How the values were obtained:
[1] = tested on: SARS-CoV-2; conditions: caco-2
[2] = tested on: Caco-2; conditions: human, caco-2, 48 h
[3] = in vitro; conditions: human, Caco-2 cells
[4] = in vitro; conditions: human
[5] = tested on: SARS-CoV-2; test: microbe, parasite or virus in culture; conditions: Severe acute respiratory syndrome coronavirus 2, Caco-2, 48 h
[6] = tested on: SARS-CoV-2; conditions: Homo sapiens; Caco-2; 10 uM

THIMEROSAL
IC50 [1]: 1.69 µM | CC50 [2]: 13.5 µM

C=C(c1ccccc1OCc1cccc(Cl)c1)n1ccnc1 [CROCONAZOLE]
CC50 at 48 h [3]: 33 µM | selectivity ratio ([4]; Caco-2 cells): 2 | IC50 [5]: 18.9 µM

ESCIN
inhibition [6]: -9.26%

CC1=C(CCC(=O)O)c2cc3nc(cc4[nH]c(cc5[nH]c(cc1n2)c(C)c5C(C)O)c(C)c4C(C)O)C(C)=C3CCC(=O)O (stereo unspecified) [HAEMAPORPHYRIN]
CC50 at 48 h [3]: 160 µM

Cc1cccc2c1CC[C@H](CN1CCC(c3c(Cl)cccc3Cl)CC1)C[C@@H]2O
CC50 at 48 h [3]: 3.67 µM | selectivity ratio ([4]; Caco-2 cells): 5 | IC50 [5]: 0.77 µM

FC(F)(F)Oc1ccc2nc(-c3ccc(OCCOCCOc4ccc(-c5nc6ccc(OC(F)(F)F)cc6[nH]5)nc4)cn3)[nH]c2c1
CC50 at 48 h [3]: 6.58 µM | selectivity ratio ([4]; Caco-2 cells): 35 | IC50 [5]: 0.19 µM

NYSTATIN
inhibition [6]: -4.11%

CCCCCCCCCCCCCCCCCC[S+](CCC)c1ccccc1C(=O)OCC (stereo unspecified)
CC50 at 48 h [3]: 0.89 µM | selectivity ratio ([4]; Caco-2 cells): 1 | IC50 [5]: 0.77 µM

Cc1nn(C)c2nc(NNC(=O)Nc3cc(Cl)nc(Cl)c3)cc(C(C)C)c12
CC50 at 48 h [3]: 16.4 µM | selectivity ratio ([4]; Caco-2 cells): 3 | IC50 [5]: 5.97 µM

N=C(Nc1ccc(I)cc1)NC1C2CC3CC(C2)CC1C3 (stereo unspecified)
CC50 at 48 h [3]: 11.5 µM | selectivity ratio ([4]; Caco-2 cells): 2 | IC50 [5]: 5.96 µM

CYANOCOBALAMIN
inhibition [6]: 40.4%

COc1cc2ncc(-c3ccccc3)nc2cc1OC
CC50 at 48 h [3]: 1.36 µM | IC50 [5]: 0.2 µM

GADOTERIDOL
inhibition [6]: 2.66%

CCOC(=O)c1ncc2[nH]c3ccc(OCc4ccccc4)cc3c2c1COC
CC50 at 48 h [3]: 0.91 µM | selectivity ratio ([4]; Caco-2 cells): 1 | IC50 [5]: 1.34 µM

C/C(=N\NC(=S)N1CCC1)c1ccccn1
CC50 at 48 h [3]: < 0.02 µM | selectivity ratio ([4]; Caco-2 cells): 1 | IC50 [5]: < 0.02 µM

C/C=C/C[C@@H](C)[C@@H](O)[C@H]1C(=O)N[C@@H](CC)C(=O)N(C)[C@H](C)C(=O)N(CC)[C@@H](C(C)C)C(=O)N[C@@H](C(C)C)C(=O)N(C)[C@@H](CC(C)C)C(=O)N[C@@H](C)C(=O)N[C@H](C)C(=O)N(C)[C@@H](CC(C)C)C(=O)N(C)[C@@H](CC(C)C)C(=O)N(C)[C@@H](C(C)C)C(=O)N1C [ALISPORIVIR]
CC50 at 48 h [3]: > 20 µM | selectivity ratio ([4]; Caco-2 cells): > 6 | IC50 [5]: 3.1 µM

SODIUM ORTHOVANADATE
inhibition [6]: 1.6%

Nc1nc2c(ncn2[C@@H]2O[C@H](CO)[C@@H](O)[C@H]2O)c(=S)[nH]1 [THIOGUANOSINE]
CC50 at 48 h [3]: 0.63 µM | selectivity ratio ([4]; Caco-2 cells): 1 | IC50 [5]: 0.78 µM

COC(=O)C[C@@](O)(CCC(C)(C)O)C(=O)O[C@@H]1C(OC)=C[C@]23CCCN2CCc2cc4c(cc2[C@@H]13)OCO4
CC50 at 48 h [3]: 0.07 µM | IC50 [5]: 19 µM

ACRIFLAVINE HYDROCHLORIDE
inhibition [6]: 69.4%

CCCCCCCCCCCCOCCOCCOCCOCCOCCOCCOCCOCCOCCO
CC50 at 48 h [3]: 10.3 µM | IC50 [5]: 0.22 µM

CCC(CC)COC(=O)[C@H](C)N[P@](=O)(OC[C@H]1O[C@@](C#N)(c2ccc3c(N)ncnn23)[C@H](O)[C@@H]1O)Oc1ccccc1
CC50 at 48 h [3]: 2580 µM | selectivity ratio ([4]; caco-2): 3400 | IC50 [5]: 0.76 µM

VITAMIN B12
inhibition [6]: -8.31%

CC(=O)OC[C@]12CCC(C)=C[C@H]1O[C@@H]1[C@H](O)[C@@H](OC(C)=O)[C@@]2(C)[C@@]12CO2
inhibition [6]: 35%

CETRIMONIUM BROMIDE
inhibition [6]: 55.1%

TOCOFERSOLAN
inhibition [6]: 95.2%

AURANOFIN
inhibition [6]: 12.8%

AUROTHIOGLUCOSE
inhibition [6]: 2.42%

CCCC[C@@]1(C2CCCC2)Cc2cc(OCCCC(=O)O)c(Cl)c(Cl)c2C1=O
CC50 at 48 h [3]: 24.6 µM | selectivity ratio ([4]; Caco-2 cells): 2 | IC50 [5]: 12.8 µM

Cc1cc(Nc2cc(N3CCN(C)CC3)nc(Sc3ccc(NC(=O)C4CC4)cc3)n2)n[nH]1
inhibition [6]: -0.85%

Cn1cc(-c2ccc3c(c2)CCN3C(=O)Cc2cccc(C(F)(F)F)c2)c2c(N)ncnc21
CC50 at 48 h [3]: 70.4 µM | selectivity ratio ([4]; Caco-2 cells): > 100 | IC50 [5]: 0.25 µM

PHENYLMERCURIC ACETATE
inhibition [6]: 9.11%

Nc1nccc(-c2c(-c3ccc(F)cc3)ncn2C2CCCCC2)n1
CC50 at 48 h [3]: 8.24 µM | IC50 [5]: 19.2 µM

CCS(=O)(=O)N(Cc1cccnc1)c1cccc(-c2ccc(C#N)cc2)c1
CC50 at 48 h [3]: 13.4 µM | selectivity ratio ([4]; Caco-2 cells): 1 | IC50 [5]: 17.1 µM

COLISTIMETHATE SODIUM
inhibition [6]: -7.44%

CC(C)(C)c1ccc(/C=C/C(=O)Nc2ccc3c(c2)OCCO3)cc1
CC50 at 48 h [3]: 14.2 µM | selectivity ratio ([4]; Caco-2 cells): 1 | IC50 [5]: 15 µM
